# Values of other authors as cited in US9668844B2, “Device for fixation at a dental site” (Colldent Y.A. Ltd., priority 2013, dated 2017).
# Columns and labels:
# bacteria = settings: see Paine, M. L. et al JADA 129 (1998)
Structure (SMILES),acute lethal dose of fluoride (F) (acute),chronic toxicity (chronic),antibacterial activity (bacteria)
F [fluoride],33 mg F/Kg body weight,0.1 mg F/Kg,–
[F][Sn][F] [stannous fluoride],–,–,has shown antibacterial activity
